Literature values as cited in PMC11704089, “A Novel Cell-Penetrating Peptide–Vascular Endothelial Growth Factor Small Interfering Ribonucleic Acid Complex That Mediates the Inhibition of Angiogenesis by Human Umbilical Vein Endothelial Cells and in an Ex Vivo Mouse Aorta Ring Model” (Biomaterials Research, 2025).

Tested on: various cell lines

In the case of RNQRKTVRCFRCRQAGHWISDCRLKSK [Ara27], the Cytotoxicity is listed as “without evidence of cytotoxicity”, the “Intracellular uptake compared to Tat-protein transduction domain and membrane translocating sequence” value is listed as “significant improvement in intracellular uptake” and the Cellular internalization (low concentrations and short treatment conditions, various cell lines) is listed as “efficiently internalized”.
